Results reported in ChEMBL document CHEMBL3774316, “Design, synthesis and anti-HIV-1 evaluation of hydrazide-based peptidomimetics as selective gelatinase inhibitors” (Bioorg Med Chem, 2016).

Target: 72 kDa type IV collagenase (Homo sapiens, UniProt P08253)
Assay: Inhibition of gelatinase A (unknown origin) after 30 mins using succinylated gelatin as substrate
Settings: not given

Sequence of 72 kDa type IV collagenase (P08253 whole entry): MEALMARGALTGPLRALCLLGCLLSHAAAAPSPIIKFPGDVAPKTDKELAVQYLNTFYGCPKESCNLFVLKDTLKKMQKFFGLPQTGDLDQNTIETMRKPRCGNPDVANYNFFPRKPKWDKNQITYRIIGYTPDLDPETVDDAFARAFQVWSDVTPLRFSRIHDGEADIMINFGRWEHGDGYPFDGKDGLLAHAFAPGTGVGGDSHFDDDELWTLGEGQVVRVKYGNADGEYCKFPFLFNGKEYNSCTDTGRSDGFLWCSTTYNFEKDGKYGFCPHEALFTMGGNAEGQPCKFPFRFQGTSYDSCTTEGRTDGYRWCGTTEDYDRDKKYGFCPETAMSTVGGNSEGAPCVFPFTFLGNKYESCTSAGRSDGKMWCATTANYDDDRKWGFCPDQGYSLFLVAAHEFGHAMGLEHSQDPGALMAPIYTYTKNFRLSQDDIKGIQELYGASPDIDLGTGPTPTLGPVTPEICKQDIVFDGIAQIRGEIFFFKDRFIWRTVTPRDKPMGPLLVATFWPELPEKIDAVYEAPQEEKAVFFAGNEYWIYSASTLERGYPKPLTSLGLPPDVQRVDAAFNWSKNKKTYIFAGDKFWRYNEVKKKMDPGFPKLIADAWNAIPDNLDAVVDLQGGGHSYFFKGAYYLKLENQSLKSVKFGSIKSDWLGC

Compound	IC50
Cc1ccc(/C=N/NC(=O)[C@@H]2CC3(CN2S(=O)(=O)c2ccc(C)cc2)SCCS3)cc1	36.8 µM
Cc1nc2ccccc2n(CC(=O)NNC(=O)Cc2ccccc2)c1=O	159 µM
Cc1nc2ccccc2n(CC(=O)N/N=C/c2ccco2)c1=O	17.2 µM
Cc1nc2ccccc2n(CC(=O)N/N=C/c2ccc(Cl)cc2)c1=O	81 µM
COc1ccc(/C=N/NC(=O)Cn2c(=O)c(C)nc3ccccc32)c(OC)c1	74.9 µM
Cc1ccc(S(=O)(=O)N2CC3(C[C@H]2C(=O)N/N=C/c2ccccc2[N+](=O)[O-])SCCS3)cc1	0.24 µM

Continued by falling IC50, values first:

IC50	Compound
112 µM	C/C(=N\NC(=O)Cn1c(=O)c(C)nc2ccccc21)c1ccccc1Cl
28.8 µM	COc1ccc(/C=N/NC(=O)Cn2c(=O)c(C)nc3ccccc32)cc1OC
1.05 µM	Cc1ccc(S(=O)(=O)N2CC3(C[C@H]2C(=O)N/N=C/c2cccc([N+](=O)[O-])c2)SCCS3)cc1

Target: T1, Aminopeptidase N (Sus scrofa, UniProt P15145)
T1 sequence (P15145 whole entry): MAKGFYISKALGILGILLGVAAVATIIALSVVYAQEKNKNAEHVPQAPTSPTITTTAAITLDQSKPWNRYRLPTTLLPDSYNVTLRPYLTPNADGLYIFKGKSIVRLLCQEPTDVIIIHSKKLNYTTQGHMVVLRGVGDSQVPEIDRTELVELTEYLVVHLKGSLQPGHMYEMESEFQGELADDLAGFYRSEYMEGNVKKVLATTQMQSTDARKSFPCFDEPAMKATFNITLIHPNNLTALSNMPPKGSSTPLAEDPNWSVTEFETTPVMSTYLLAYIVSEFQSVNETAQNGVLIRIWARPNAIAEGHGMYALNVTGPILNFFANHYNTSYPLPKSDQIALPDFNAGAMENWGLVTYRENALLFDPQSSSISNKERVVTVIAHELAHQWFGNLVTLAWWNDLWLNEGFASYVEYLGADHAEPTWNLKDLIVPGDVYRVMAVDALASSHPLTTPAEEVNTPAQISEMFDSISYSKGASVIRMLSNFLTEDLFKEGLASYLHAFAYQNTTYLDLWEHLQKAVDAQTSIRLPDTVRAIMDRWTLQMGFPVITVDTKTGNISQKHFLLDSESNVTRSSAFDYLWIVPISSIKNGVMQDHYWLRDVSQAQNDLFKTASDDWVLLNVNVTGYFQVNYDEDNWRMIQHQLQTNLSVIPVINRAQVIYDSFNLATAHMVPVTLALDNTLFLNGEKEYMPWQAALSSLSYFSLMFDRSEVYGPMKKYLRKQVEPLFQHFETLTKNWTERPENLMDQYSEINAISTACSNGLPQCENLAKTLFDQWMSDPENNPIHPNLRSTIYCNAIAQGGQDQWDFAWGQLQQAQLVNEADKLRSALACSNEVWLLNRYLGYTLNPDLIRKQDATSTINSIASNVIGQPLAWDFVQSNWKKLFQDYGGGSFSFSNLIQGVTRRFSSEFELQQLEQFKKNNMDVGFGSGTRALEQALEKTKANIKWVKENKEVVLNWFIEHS
Assay: Inhibition of porcine microsomal aminopeptidase N preincubated for 30 mins using L-Leu-p-nitroanilide as substrate by UV-VIS spectrophotometer
Settings: not given

Compound	IC50
Cc1ccc(/C=N/NC(=O)[C@@H]2CC3(CN2S(=O)(=O)c2ccc(C)cc2)SCCS3)cc1	> 1000 µM
Cc1nc2ccccc2n(CC(=O)NNC(=O)Cc2ccccc2)c1=O	333 µM
Cc1nc2ccccc2n(CC(=O)N/N=C/c2ccco2)c1=O	103 µM
Cc1nc2ccccc2n(CC(=O)N/N=C/c2ccc(Cl)cc2)c1=O	449 µM
COc1ccc(/C=N/NC(=O)Cn2c(=O)c(C)nc3ccccc32)c(OC)c1	243 µM
Cc1ccc(S(=O)(=O)N2CC3(C[C@H]2C(=O)N/N=C/c2ccccc2[N+](=O)[O-])SCCS3)cc1	> 1000 µM

Further lines, results first:

IC50	Compound
439 µM	C/C(=N\NC(=O)Cn1c(=O)c(C)nc2ccccc21)c1ccccc1Cl
481 µM	COc1ccc(/C=N/NC(=O)Cn2c(=O)c(C)nc3ccccc32)cc1OC
> 1000 µM	Cc1ccc(S(=O)(=O)N2CC3(C[C@H]2C(=O)N/N=C/c2cccc([N+](=O)[O-])c2)SCCS3)cc1

Test system: Human immunodeficiency virus 1
Assay: Antiviral activity against HIV1 3B infected in human C8166 cells assessed as cytopathic effect by counting the number of syncytia by microscopy
Type: functional, organism-based
Settings: Human immunodeficiency virus 1, 3B

Compound	EC50
Cc1ccc(/C=N/NC(=O)[C@@H]2CC3(CN2S(=O)(=O)c2ccc(C)cc2)SCCS3)cc1	40.5 µM
Cc1nc2ccccc2n(CC(=O)NNC(=O)Cc2ccccc2)c1=O	296 µM
Cc1nc2ccccc2n(CC(=O)N/N=C/c2ccco2)c1=O	301 µM
Cc1nc2ccccc2n(CC(=O)N/N=C/c2ccc(Cl)cc2)c1=O	32.2 µM
COc1ccc(/C=N/NC(=O)Cn2c(=O)c(C)nc3ccccc32)c(OC)c1	126 µM
Cc1ccc(S(=O)(=O)N2CC3(C[C@H]2C(=O)N/N=C/c2ccccc2[N+](=O)[O-])SCCS3)cc1	32.9 µM

More lines, now with the values ahead:

EC50	Compound
> 543 µM	C/C(=N\NC(=O)Cn1c(=O)c(C)nc2ccccc21)c1ccccc1Cl
81 µM	COc1ccc(/C=N/NC(=O)Cn2c(=O)c(C)nc3ccccc32)cc1OC
16 µM	Cc1ccc(S(=O)(=O)N2CC3(C[C@H]2C(=O)N/N=C/c2cccc([N+](=O)[O-])c2)SCCS3)cc1

Test system: Human immunodeficiency virus 1
Assay: Antiviral activity against HIV1 A17 infected in human C8166 cells assessed as reduction in p24 antigen level incubated for 4 hrs followed by cell plating for 72 hrs by ELISA method
Type: functional, organism-based
Settings: Human immunodeficiency virus 1, A17, C8166

EC50	Compound
> 200 µM	Cc1ccc(/C=N/NC(=O)[C@@H]2CC3(CN2S(=O)(=O)c2ccc(C)cc2)SCCS3)cc1
9.94 µM	Cc1ccc(S(=O)(=O)N2CC3(C[C@H]2C(=O)N/N=C/c2cccc([N+](=O)[O-])c2)SCCS3)cc1

Test system: not listed separately
Assay: Therapeutic index, ratio of CC50 for human C8166 cells to EC50 for HIV1 3B infected in human C8166 cells
Type: cell-based
Settings: read-out: Ratio CC50/EC50

Compound	selectivity ratio
Cc1ccc(/C=N/NC(=O)[C@@H]2CC3(CN2S(=O)(=O)c2ccc(C)cc2)SCCS3)cc1	> 10.4
Cc1nc2ccccc2n(CC(=O)NNC(=O)Cc2ccccc2)c1=O	> 1.9
Cc1nc2ccccc2n(CC(=O)N/N=C/c2ccco2)c1=O	> 2.1
Cc1nc2ccccc2n(CC(=O)N/N=C/c2ccc(Cl)cc2)c1=O	> 17.5
COc1ccc(/C=N/NC(=O)Cn2c(=O)c(C)nc3ccccc32)c(OC)c1	> 4.2
Cc1ccc(S(=O)(=O)N2CC3(C[C@H]2C(=O)N/N=C/c2cccc([N+](=O)[O-])c2)SCCS3)cc1	> 24.6
Cc1ccc(S(=O)(=O)N2CC3(C[C@H]2C(=O)N/N=C/c2ccccc2[N+](=O)[O-])SCCS3)cc1	1.9
COc1ccc(/C=N/NC(=O)Cn2c(=O)c(C)nc3ccccc32)cc1OC	> 6.5

Test system: C8166
Assay: Cytotoxicity against human C8166 cells after 72 hrs by MTT assay
Type: functional
Settings: C8166, 72 h

Compound	CC50
Cc1ccc(/C=N/NC(=O)[C@@H]2CC3(CN2S(=O)(=O)c2ccc(C)cc2)SCCS3)cc1	> 421 µM
Cc1nc2ccccc2n(CC(=O)NNC(=O)Cc2ccccc2)c1=O	> 571 µM
Cc1nc2ccccc2n(CC(=O)N/N=C/c2ccco2)c1=O	> 645 µM
Cc1nc2ccccc2n(CC(=O)N/N=C/c2ccc(Cl)cc2)c1=O	> 565 µM
COc1ccc(/C=N/NC(=O)Cn2c(=O)c(C)nc3ccccc32)c(OC)c1	> 526 µM
Cc1ccc(S(=O)(=O)N2CC3(C[C@H]2C(=O)N/N=C/c2cccc([N+](=O)[O-])c2)SCCS3)cc1	> 395 µM
C/C(=N\NC(=O)Cn1c(=O)c(C)nc2ccccc21)c1ccccc1Cl	> 543 µM
Cc1ccc(S(=O)(=O)N2CC3(C[C@H]2C(=O)N/N=C/c2ccccc2[N+](=O)[O-])SCCS3)cc1	65 µM
COc1ccc(/C=N/NC(=O)Cn2c(=O)c(C)nc3ccccc32)cc1OC	> 526 µM

Test system: Human immunodeficiency virus 1
Assay: Antiviral activity against HIV1 3B infected in human C8166 cells assessed as reduction in p24 antigen level incubated for 2 hrs followed by cell plating for 72 hrs by ELISA method
Type: functional, organism-based
Settings: Human immunodeficiency virus 1, 3B

EC50	Compound
39.3 µM	Cc1ccc(/C=N/NC(=O)[C@@H]2CC3(CN2S(=O)(=O)c2ccc(C)cc2)SCCS3)cc1
3.89 µM	Cc1ccc(S(=O)(=O)N2CC3(C[C@H]2C(=O)N/N=C/c2cccc([N+](=O)[O-])c2)SCCS3)cc1

Test system: Human immunodeficiency virus 1
Assay: Antiviral activity against HIV1 74V infected in human C8166 cells assessed as reduction in p24 antigen level incubated for 4 hrs followed by cell plating for 72 hrs by ELISA method
Type: functional, organism-based
Settings: Human immunodeficiency virus 1, 74V

EC50	Compound
> 200 µM	Cc1ccc(/C=N/NC(=O)[C@@H]2CC3(CN2S(=O)(=O)c2ccc(C)cc2)SCCS3)cc1
5.07 µM	Cc1ccc(S(=O)(=O)N2CC3(C[C@H]2C(=O)N/N=C/c2cccc([N+](=O)[O-])c2)SCCS3)cc1
